The results in this text go back to patent publication EP0640095B1, “PROCESS FOR MAKING VANCOMYCIN” (ABBOTT LABORATORIES, priority 1992, dated 1993).

One may read the solubility as the concentration that dissolves in the medium under given conditions. The low end stands for little dissolved substance, the high end for much dissolved substance.

The data set is described as follows: Solubility of vancomycin as a function of pH (base crystallization). It counts as physicochemical. The note with it: pH 9; pH of 9.0 to 9.5. From the text: Prior to the base crystallization step, the pH of the solution must be optimized to maximize the efficiency of the crystallization. […]

In brackets after ≈: the same amount, converted by molar mass.

Take `CN[C@H](CC(C)C)C(=O)N[C@H]1C(=O)N[C@@H](CC(N)=O)C(=O)N[C@H]2C(=O)N[C@H]3C(=O)N[C@H](C(=O)N[C@H](C(=O)O)c4cc(O)cc(O)c4-c4cc3ccc4O)[C@H](O)c3ccc(c(Cl)c3)Oc3cc2cc(c3O[C@@H]2O[C@H](CO)[C@@H](O)[C@H](O)[C@H]2O[C@H]2C[C@](C)(N)[C@H](O)[C@H](C)O2)Oc2ccc(cc2Cl)[C@H]1O` [vancomycin]: the solubility lay within 5 to 20 mg/mL (≈ 3.45 to 13.8 mM).
